# Assays:
# [1] = tested on: human liver cytochrome P450 1A1 (CYP1A1); conditions: cited from earlier work
# [2] = biological target: T1, purified recombinant LDHA (Homo sapiens, UniProt P00338); assay: In vitro LDH activity assay with purified recombinant LDHA; assay type: biochemical
# T1 construct: made in house
# Protocol: A purification of recombinant LDHA was performed as described previously. LDH activity was determined by measuring the decrease of absorbance at 340 nm due to the oxidation of NADH in 20 mM HEPES-K^+, 0.05% bovine serum albumin (BSA), 20 μM NADH, and 2 mM pyruvate (Sigma-Aldrich, St. Louis, MO, USA) at a pH of 7.2 using a spectrofluorometer (Spectramax M2, Molecular Devices, San Jose, CA, USA; excitation 340 nm; emission 460 nm), as described previously. Ten nanograms of recombinant LDHA protein were used in the in vitro LDH activity assay. One microgram of total protein from cell or tissue lysates was used for intracellular or in vivo LDH assays.
# [3] = biological target: LDHA (Homo sapiens, UniProt P00338); assay: Surface plasmon resonance (SPR) biosensor analysis of LDHA binding; set-up: Full-length LDHA (residues 1–331) was obtained from cDNA by polymerase chain reaction (PCR); inferred from pET-28a vector and Ni-NTA purification; made in house; host or cells: E. coli BL21 (DE3); conditions: 25 °C, read-out: apparent KD of binding to LDHA
# Protocol: The apparent dissociation constants (KD) between LDHA and Machilin A were measured using a Biacore T100 biosensor (GE Healthcare, Chicago, IL, USA). […] A total of 150 μL LDHA (50 μg/mL) in 10 mM sodium acetate (pH 5.5) was coupled via injection for 15 min at 10 μL/min, followed by injection of 1 M ethanolamine to deactivate the residual amines. To measure kinetics at 25 °C, chemical compounds with concentrations ranging from 500 to 62 μM were prepared by dilution in running buffer (10 mM HEPES, 150 mM NaCl, 0.005% v/v surfactant P20, and 1% DMSO) at a pH of 7.4. The immobilized ligand was regenerated by injecting 10 μL of 50 mM NaOH at a rate of 10 μL/min during the cycles.
# [4] = tested on: Huh7; assay: Lactate production assay; assay type: cell-based, human; conditions: normoxic
# Protocol: (§1) Cellular lactate production was measured using a lactate fluorometric assay kit (Biovision, Milpitas, CA, USA) as described previously. Phenol red-free DMEM medium without FBS was added to a six-well plate containing subconfluent cells which were then incubated for 1 h at 37 °C. After incubation, the medium of each well was tested using a lactate assay kit (Biovision, Milpitas, CA, USA).
# [5] = tested on: NCI-H1793; assay: Lactate production assay; assay type: cell-based, human; conditions: normoxic
# Protocol: as §1
# [6] = tested on: R.K.O; assay: Lactate production assay; assay type: cell-based, human; conditions: normoxic
# Protocol: as §1
# [7] = tested on: HT29; assay: Lactate production assay; assay type: cell-based, human; conditions: for Lactate (production): normoxic
# Protocol: as §1
# [8] = biological target: LDHB (Homo sapiens, UniProt P07195); assay: LDHB activity (data not shown); assay type: biochemical; conditions: concentrations of up to 500 μM
# Chain of LDHB (P07195 whole entry, species assumed): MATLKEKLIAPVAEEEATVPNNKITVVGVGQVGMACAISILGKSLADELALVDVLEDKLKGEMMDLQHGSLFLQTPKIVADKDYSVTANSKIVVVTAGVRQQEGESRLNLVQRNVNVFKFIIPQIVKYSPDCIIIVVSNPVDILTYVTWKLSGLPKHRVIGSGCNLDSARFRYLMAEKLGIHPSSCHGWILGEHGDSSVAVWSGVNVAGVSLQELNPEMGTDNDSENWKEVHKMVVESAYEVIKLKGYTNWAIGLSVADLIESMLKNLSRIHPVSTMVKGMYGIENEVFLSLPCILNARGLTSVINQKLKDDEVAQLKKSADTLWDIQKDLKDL
smiles,measurement,setting,value
"C[C@H](Cc1ccc2c(c1)OCO2)[C@@H](C)Cc1ccc2c(c1)OCO2 [MA, bis(3,4-methylenedioxy)-8,8’-lignan]",inhibitory effect on drug metabolism,[1],selective inhibitory effect
same,mode of inhibition of LDHA activity,[2]; data not shown,competitive inhibition
same,IC50,"[2]; purified recombinant LDHA, read-out: inhibitory concentration (IC50) for LDHA activity",84 µM
same,Kd,[3],29 µM
same,Lactate (production),[4]; MA 10 µM,1140 ± 320 µM
same,Lactate (production),[4]; MA 50 µM,670 ± 150 µM
same,Lactate (production),[5]; MA 10 µM,2360 ± 260 µM
same,Lactate (production),[5]; MA 50 µM,2040 ± 380 µM
same,Lactate (production),[6]; MA 10 µM,2760 ± 60 µM
same,Lactate (production),[6]; MA 50 µM,2480 ± 60 µM
same,Lactate (production),[7]; MA 10 µM,3420 ± 370 µM
same,Lactate (production),[7]; MA 50 µM,2730 ± 40 µM
same,increase of lactate production in hypoxic condition,"[7]; machilin A 30 μM, hypoxia",significantly reduced
same,effect on LDHB activity,[8],did not affect LDHB activity
